Results reported in PubChem BioAssay (NCI).
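In this assay, cells in 96-well plates receive the compound at five concentrations for 48 hours. Endpoints are linearly interpolated between the surrounding concentrations. At the GI50, growth is halved. TGI marks complete inhibition of growth.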

What was measured:
Test in all cases: growth of human tumour cells (NCI), 48 h
HL-60(TB) leukemia = tested on: HL-60(TB) leukemia
CCRF-CEM leukemia = tested on: CCRF-CEM leukemia
U251 CNS = tested on: U251 CNS
786-0 renal = tested on: 786-0 renal
UACC-62 melanoma = tested on: UACC-62 melanoma
MDA-MB-231 breast = tested on: MDA-MB-231 breast
CAKI-1 renal = tested on: CAKI-1 renal
SNB-19 CNS = tested on: SNB-19 CNS
SF-539 CNS = tested on: SF-539 CNS
SK-MEL-2 melanoma = tested on: SK-MEL-2 melanoma

Molecule Nc1cc2nc3ccccc3sc-2cc1=O has a GI50 (HL-60(TB) leukemia) of 2.07 µM, a TGI (HL-60(TB) leukemia) of 5.78 µM and a GI50 (CCRF-CEM leukemia) of 2.47 µM. For the same molecule, the TGI (CCRF-CEM leukemia) was over 100 µM, the GI50 (U251 CNS) was 3.63 µM and the TGI (U251 CNS) was 15.1 µM. The GI50 (786-0 renal) was 4.21 µM, the TGI (786-0 renal) was 14.5 µM and the GI50 (UACC-62 melanoma) was 1.55 µM. For the same molecule, the TGI (UACC-62 melanoma) was 3.33 µM, the GI50 (MDA-MB-231 breast) was 1.76 µM and the TGI (MDA-MB-231 breast) was 11.8 µM. The GI50 (CAKI-1 renal) was 5.66 µM, the TGI (CAKI-1 renal) was 22.1 µM and the GI50 (SNB-19 CNS) was 6.13 µM. The TGI (SNB-19 CNS) was 20 µM, the GI50 (SF-539 CNS) was 2.01 µM and the TGI (SF-539 CNS) was 4.26 µM. For the same molecule, the GI50 (SK-MEL-2 melanoma) was 2.03 µM and the TGI (SK-MEL-2 melanoma) was 4.24 µM.
Work on O=C(CN1CCN(c2cc3c(cc2F)c(=O)c(C(=O)N/N=C/c2ccccc2O)cn3C2CC2)CC1)N/N=C\c1ccccc1O yielded a GI50 (HL-60(TB) leukemia) of 0.36 µM, a GI50 (CCRF-CEM leukemia) of 0.167 µM and a TGI (CCRF-CEM leukemia) of over 100 µM. The GI50 (U251 CNS) was 0.367 µM, the TGI (U251 CNS) was over 100 µM and the GI50 (786-0 renal) was 1.12 µM. The TGI (786-0 renal) was over 100 µM, the GI50 (UACC-62 melanoma) was 0.758 µM and the TGI (UACC-62 melanoma) was 12.4 µM. For the same molecule, the GI50 (MDA-MB-231 breast) was 0.533 µM, the TGI (MDA-MB-231 breast) was over 69.3 µM and the GI50 (CAKI-1 renal) was 1.1 µM. It also gave a TGI (CAKI-1 renal) of over 100 µM, a GI50 (SNB-19 CNS) of 1.18 µM and a TGI (SNB-19 CNS) of over 100 µM. The GI50 (SF-539 CNS) was 0.829 µM, the TGI (SF-539 CNS) was over 64 µM and the GI50 (SK-MEL-2 melanoma) was 1.66 µM. It also gave a TGI (SK-MEL-2 melanoma) of over 100 µM.
In the case of CN(C)c1ccc(-c2cc(-c3ccc(Nc4nc(Nc5ccc(Cl)cc5)nc(Nc5ccc(Cl)cc5)n4)cc3)no2)cc1, the GI50 (HL-60(TB) leukemia) is reported as 2.01 µM, the TGI (HL-60(TB) leukemia) is reported as 4.73 µM and the GI50 (CCRF-CEM leukemia) is reported as 2.34 µM. It also gave a TGI (CCRF-CEM leukemia) of 6.47 µM, a GI50 (U251 CNS) of 6.27 µM and a TGI (U251 CNS) of 61.8 µM. For the same molecule, the GI50 (786-0 renal) was 1.51 µM, the TGI (786-0 renal) was 3.66 µM and the GI50 (UACC-62 melanoma) was 17.1 µM. The TGI (UACC-62 melanoma) was 62.2 µM, the GI50 (MDA-MB-231 breast) was 9.66 µM and the TGI (MDA-MB-231 breast) was 37.7 µM. The GI50 (CAKI-1 renal) was 2.8 µM, the TGI (CAKI-1 renal) was over 100 µM and the GI50 (SNB-19 CNS) was 18.7 µM. For the same molecule, the TGI (SNB-19 CNS) was over 100 µM, the GI50 (SF-539 CNS) was 5.18 µM and the TGI (SF-539 CNS) was 21.2 µM. For the same molecule, the GI50 (SK-MEL-2 melanoma) was 2.87 µM and the TGI (SK-MEL-2 melanoma) was 11 µM.
In the case of Clc1cccc(Cc2cn3cc(-c4ccccc4)nc3s2)c1Cl, the GI50 (HL-60(TB) leukemia) is reported as over 100 µM, the TGI (HL-60(TB) leukemia) is reported as over 100 µM and the GI50 (CCRF-CEM leukemia) is reported as over 100 µM. For the same molecule, the TGI (CCRF-CEM leukemia) was over 100 µM, the GI50 (U251 CNS) was 25.5 µM and the TGI (U251 CNS) was over 100 µM. For the same molecule, the GI50 (786-0 renal) was over 100 µM, the TGI (786-0 renal) was over 100 µM and the GI50 (UACC-62 melanoma) was 1.83 µM. For the same molecule, the TGI (UACC-62 melanoma) was over 100 µM, the GI50 (MDA-MB-231 breast) was 3.08 µM and the TGI (MDA-MB-231 breast) was over 100 µM. For the same molecule, the GI50 (CAKI-1 renal) was over 100 µM, the TGI (CAKI-1 renal) was over 100 µM and the GI50 (SNB-19 CNS) was 24.4 µM. The TGI (SNB-19 CNS) was over 100 µM, the GI50 (SF-539 CNS) was 43.3 µM and the TGI (SF-539 CNS) was over 100 µM. The GI50 (SK-MEL-2 melanoma) was 22.3 µM and the TGI (SK-MEL-2 melanoma) was 80.8 µM.
For Cc1cc(=O)[nH]c2cc3oc4ccccc4c3cc12, the TGI (HL-60(TB) leukemia) was 59.3 µM, the TGI (CCRF-CEM leukemia) was over 75.9 µM and the TGI (U251 CNS) was over 86.6 µM. For the same molecule, the TGI (786-0 renal) was over 81.8 µM, the TGI (UACC-62 melanoma) was over 100 µM and the TGI (MDA-MB-231 breast) was over 100 µM. It also gave a TGI (CAKI-1 renal) of over 100 µM, a TGI (SNB-19 CNS) of over 100 µM and a TGI (SF-539 CNS) of over 100 µM. It also gave a TGI (SK-MEL-2 melanoma) of over 100 µM.
Molecule O=C(CCl)N1c2ccccc2Oc2ccc3ccccc3c21 has a GI50 (HL-60(TB) leukemia) of 1.45 µM, a TGI (HL-60(TB) leukemia) of 4.86 µM and a GI50 (CCRF-CEM leukemia) of 0.163 µM. It also gave a TGI (CCRF-CEM leukemia) of 3.39 µM, a GI50 (U251 CNS) of 1.36 µM and a TGI (U251 CNS) of 2.7 µM. The GI50 (786-0 renal) was 2.05 µM, the TGI (786-0 renal) was 3.56 µM and the GI50 (UACC-62 melanoma) was 1.57 µM. It also gave a TGI (UACC-62 melanoma) of 3 µM, a GI50 (MDA-MB-231 breast) of 1.28 µM and a TGI (MDA-MB-231 breast) of 2.81 µM. The GI50 (CAKI-1 renal) was 1.02 µM, the TGI (CAKI-1 renal) was 3.8 µM and the GI50 (SNB-19 CNS) was 1.86 µM. For the same molecule, the TGI (SNB-19 CNS) was 3.44 µM, the GI50 (SF-539 CNS) was 1.59 µM and the TGI (SF-539 CNS) was 3.1 µM. The GI50 (SK-MEL-2 melanoma) was 1.14 µM and the TGI (SK-MEL-2 melanoma) was 2.67 µM.
Molecule O=[N+]([O-])c1cnc(Sc2ccncn2)s1 has a GI50 (HL-60(TB) leukemia) of 1.69 µM, a TGI (HL-60(TB) leukemia) of 4.18 µM and a GI50 (CCRF-CEM leukemia) of 1.51 µM. For the same molecule, the TGI (CCRF-CEM leukemia) was 3.53 µM, the GI50 (U251 CNS) was 3.49 µM and the TGI (U251 CNS) was 11.5 µM. For the same molecule, the GI50 (786-0 renal) was 6.72 µM, the TGI (786-0 renal) was 18.4 µM and the GI50 (UACC-62 melanoma) was 6.12 µM. The TGI (UACC-62 melanoma) was 16.9 µM, the GI50 (MDA-MB-231 breast) was 3.98 µM and the TGI (MDA-MB-231 breast) was 15.1 µM. The GI50 (CAKI-1 renal) was 1.64 µM, the TGI (CAKI-1 renal) was 3.07 µM and the GI50 (SNB-19 CNS) was 15.9 µM. It also gave a TGI (SNB-19 CNS) of 31.9 µM, a GI50 (SF-539 CNS) of 5.61 µM and a TGI (SF-539 CNS) of 14.9 µM. It also gave a GI50 (SK-MEL-2 melanoma) of 7.99 µM and a TGI (SK-MEL-2 melanoma) of 21.9 µM.
CCCCCCCC(=O)SCC/C=C/[C@@H]1CC(=O)NCc2cccc(n2)C2=N[C@@](C)(CS2)C(=O)N[C@@H](C(C)C)C(=O)N1 showed a GI50 (HL-60(TB) leukemia) of 0.509 µM, a TGI (HL-60(TB) leukemia) of over 33.3 µM and a GI50 (CCRF-CEM leukemia) of 1.47 µM. For the same molecule, the TGI (CCRF-CEM leukemia) was over 33.3 µM, the GI50 (U251 CNS) was 0.889 µM and the TGI (U251 CNS) was 8.16 µM. It also gave a GI50 (786-0 renal) of 5.52 µM, a TGI (786-0 renal) of over 33.3 µM and a GI50 (UACC-62 melanoma) of 0.192 µM. The TGI (UACC-62 melanoma) was 4.88 µM, the GI50 (MDA-MB-231 breast) was 2.08 µM and the TGI (MDA-MB-231 breast) was over 33.3 µM. For the same molecule, the GI50 (CAKI-1 renal) was 16.9 µM, the TGI (CAKI-1 renal) was over 33.3 µM and the GI50 (SNB-19 CNS) was 2.06 µM. It also gave a TGI (SNB-19 CNS) of over 33.3 µM, a GI50 (SF-539 CNS) of 2.72 µM and a TGI (SF-539 CNS) of over 33.3 µM. The GI50 (SK-MEL-2 melanoma) was 1.03 µM and the TGI (SK-MEL-2 melanoma) was 15.6 µM.
Molecule O[C@H]1[C@H]2c3cc4c(cc3CN3CCC(=C[C@@H]1O)[C@H]23)OCO4 has a TGI (HL-60(TB) leukemia) of 6.37 µM, a TGI (CCRF-CEM leukemia) of 7.51 µM and a TGI (U251 CNS) of over 26.7 µM. It also gave a TGI (786-0 renal) of over 34 µM, a TGI (UACC-62 melanoma) of 7.95 µM and a TGI (MDA-MB-231 breast) of 10.2 µM. It also gave a TGI (CAKI-1 renal) of 4.34 µM, a TGI (SNB-19 CNS) of 14.9 µM and a TGI (SF-539 CNS) of 5.74 µM. For the same molecule, the TGI (SK-MEL-2 melanoma) was 2.12 µM.
